Measured values published in PMC10535864, “Novel Aminopyrimidine-2,4-diones, 2-Thiopyrimidine-4-ones, and 6-Arylpteridines as Dual-Target Inhibitors of BRD4/PLK1: Design, Synthesis, Cytotoxicity, and Computational Studies” (Pharmaceuticals, 2023).

What was measured:
Assay type in all cases: cell-based
[1] = test system: MDA-MB-231 breast cancer cells; experiment: MTT cytotoxicity assay, MDA-MB-231; settings: MDA-MB-231, MTT; for IC50 / viability at 0.312 µM / viability at 0.625 µM / viability at 1.25 µM / viability at 2.5 µM / viability at 5 µM / viability at 10 µM: Homo sapiens; for IC50: mean of three independent experiments ± SD, read-out: IC50 Value MDA-MB-231
Procedure: (§1) All newly synthetic compounds were tested for cytotoxicity using a six-dose MTT colorimetric assay on three cancer cell lines; namely, breast cancer cells (MDA-MB-231), colorectal adenocarcinoma cells (HT-29) and renal cancer cells (U-937). […] However, renal cancer cells (U-937) were discovered to be the least sensitive.
(§2) Using a six-dose MTT colorimetric assay, all new synthetic compounds were tested for cytotoxicity against three cancer cell lines: MDA-MB-231 breast cancer cells, HT-29 colorectal adenocarcinoma cells, and U-937 renal cancer cells. […] These cell lines were supplied by ATCC (American Type Culture Collection) via the Holding company for biological products and vaccines (VACSERA, Cairo, Egypt). The reference control used was Methotrexate. Detailed descriptions of the MTT colorimetric assay’s protocol can be found in the Supplementary file.
(§3) 1.1.In-vitro cytotoxicity screening
(§4) Using a six-dose MTT colorimetric assay, allnew synthetic compounds were tested for cytotoxicity against three cancer cell lines: MDA-MB-231 breast cancer cells,HT-29 colorectal adenocarcinoma cells, and U-937 renal […]
(§5) The cell lines were supplied by ATCC (American Type Culture Collection). The reference control used was Methotrexate. The cytotoxic activities of the examined compounds were quantified by inoculating a 96-well tissue culture plate with 1 X 10^5 cells / mL (100 uL/well) and incubating it at 37°C for 24 hours to develop a complete monolayer sheet. After forming a confluent sheet of cells, the growth medium was decanted from 96-well microtiter plates, and the cell monolayer was washed twice with wash media. Two-fold dilutions of tested samples were made in RPMI medium with 2% serum (maintenance medium), and 0.1 mL of each dilution was tested in different wells, with three wells serving as controls and receiving only maintenance medium. Following that, the plate was incubated at 37°C and examined. Cells were investigated for any physical signs of toxicity, such as partial or complete monolayer loss, rounding, shrinkage, or cell granulation. MTT solution was prepared (5mg/ml in PBS) (BIO BASIC CANADA INC), and 20 uL MTT solution was added to each well. After 5 minutes on a shaking table at150 rpm to thoroughly mix the MTT into the media, it was incubated (37°C, 5% CO2) for 4 hours to allow the MTT to be metabolized. Formazan (MTT metabolic product) was resuspended in 200 uL DMSO and shaken at 150 rpm for 5 minutes to thoroughly mix the formazan into the solvent. The optical density was measured at 560 nm, and the background was subtracted at 620 nm. Finally, the IC50 of the test compound in comparison to the reference was calculated using the GraphPad Prism software. […]

[2] = test system: HT-29 colorectal adenocarcinoma cells; experiment: MTT cytotoxicity assay, HT-29; settings: MTT; for Toxicity % / viability at 0.312 µM / viability at 0.625 µM / viability at 1.25 µM / viability at 2.5 µM / viability at 5 µM / viability at 10 µM: HT29; for viability at 0.312 µM / viability at 0.625 µM / viability at 1.25 µM / viability at 2.5 µM / viability at 5 µM / viability at 10 µM / IC50: Homo sapiens, HT-29; for IC50: mean of three independent experiments ± SD, read-out: IC50 Value HT-29
Procedure: as §1, §2, §3, §4, §5

[3] = MTT cytotoxicity assay, U-937; settings: Homo sapiens, U-937, U937, MTT;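 note: Six-dose MTT colorimetric assay on cell monolayers, formazan absorbance read at 560 nm with 620 nm background removed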
Procedure: (§6) Using a six-dose MTT colorimetric assay [44, 66], all new synthetic compounds were tested for cytotoxicity against three cancer cell lines: MDA-MB-231 breast cancer cells, HT-29 colorectal adenocarcinoma cells, and U-937 renal cancer cells. […] These cell lines were supplied by ATCC (American Type Culture Collection) via the Holding company for biological products and vaccines (VACSERA, Cairo, Egypt). The reference control used was Methotrexate.
(§7) Using a six-dose MTT colorimetric assay [44, 66], allnew synthetic compounds were tested for cytotoxicity against three cancer cell lines: MDA-MB-231 breast cancer cells,HT-29 colorectal adenocarcinoma cells, and U-937 renal
(§8) The cell lines were supplied by ATCC (American Type Culture Collection). The reference control used was Methotrexate. The cytotoxic activities of the examined compounds were quantified by inoculating a 96-well tissue culture plate with 1 X 10^5 cells / mL (100 uL/well) and incubating it at 37°C for 24 hours to develop a complete monolayer sheet. After forming a confluent sheet of cells, the growth medium was decanted from 96-well microtiter plates, and the cell monolayer was washed twice with wash media. Two-fold dilutions of tested samples were made in RPMI medium with 2% serum (maintenance medium), and 0.1 mL of each dilution was tested in different wells, with three wells serving as controls and receiving only maintenance medium. Following that, the plate was incubated at 37°C and examined. Cells were investigated for any physical signs of toxicity, such as partial or complete monolayer loss, rounding, shrinkage, or cell granulation. MTT solution was prepared (5mg/ml in PBS) (BIO BASIC CANADA INC), and 20 uL MTT solution was added to each well. After 5 minutes on a shaking table at150 rpm to thoroughly mix the MTT into the media, it was incubated (37C, 5% CO2) for 4 hours to allow the MTT to be metabolized. Formazan (MTT metabolic product) was resuspended in 200 uL DMSO and shaken at 150 rpm for 5 minutes to thoroughly mix the formazan into the solvent. The optical density was measured at 560 nm, and the background was subtracted at 620 nm. Finally, the IC50 of the test compound in comparison to the reference was calculated using the GraphPad Prism software.

U-937 renal cancer cells = experiment: MTT cytotoxicity assay, U-937; settings: MTT; for IC50: Homo sapiens, U-937, mean of three independent experiments ± SD, read-out: IC50 Value U-937; for Toxicity %: U937;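 for all read-outs here: Six-dose MTT colorimetric assay on cell monolayers, formazan absorbance read at 560 nm with 620 nm background removed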
Procedure: as §6, §7, §8

SMILES	IC50 [1] [µM]	viability at 0.312 µM ([1]; 0.312 uM) [%]	viability at 0.625 µM ([1]; 0.625 uM) [%]	viability at 1.25 µM ([1]; 1.25 uM) [%]	viability at 2.5 µM ([1]; 2.5 uM) [%]	viability at 5 µM ([1]; 5 uM) [%]	viability at 10 µM ([1]; 10 uM) [%]	Toxicity % ([1]; 0.312 uM) [%]	Toxicity % ([1]; 0.625 uM) [%]	Toxicity % ([1]; 1.25 uM) [%]	Toxicity % ([1]; 2.5 uM) [%]	Toxicity % ([1]; 5 uM) [%]	Toxicity % ([1]; 10 uM) [%]	Toxicity % ([2]; 0.312 uM) [%]	Toxicity % ([2]; 0.625 uM) [%]	Toxicity % ([2]; 1.25 uM) [%]	Toxicity % ([2]; 2.5 uM) [%]	Toxicity % ([2]; 5 uM) [%]	Toxicity % ([2]; 10 uM) [%]	viability at 0.312 µM ([2]; 0.312 uM) [%]	other results
CCn1c(N)c(/N=C(/CBr)c2ccc([N+](=O)[O-])cc2)c(=O)[nH]c1=O [Compound 5a, (E)-6-Amino-5-((2-bromo-1-(4-nitrophenyl)ethylidene)amino)-1-ethylpyrimidine-2,4(1H,3H)-dione]	3.24 ± 0.03	99.7	99.6	91.2	53	23.8	4.21	0.266	0.4433	8.821	46.99	76.2	95.79	0.1292	0.2584	5.556	50.3	83.29	97.46	99.9	viability at 0.625 µM ([2]; 0.625 uM): 99.7%; viability at 1.25 µM ([2]; 1.25 uM): 94.4%; viability at 2.5 µM ([2]; 2.5 uM): 49.7%; viability at 5 µM ([2]; 5 uM): 16.7%; viability at 10 µM ([2]; 10 uM): 2.54%; IC50 [2]: 3.09 ± 0.01 µM; viability at 0.312 µM [3]: 99.6%; viability at 0.625 µM [3]: 98.9%; viability at 1.25 µM [3]: 99.6%; viability at 2.5 µM [3]: 89.7%; viability at 5 µM [3]: 55.1%; viability at 10 µM [3]: 12.7%; IC50 (U-937 renal cancer cells): 6.08 ± 0.11 µM; Toxicity % (U-937 renal cancer cells; 0.312 uM): 0.4357%; Toxicity % (U-937 renal cancer cells; 0.625 uM): 1.144%; Toxicity % (U-937 renal cancer cells; 1.25 uM): 0.4357%; Toxicity % (U-937 renal cancer cells; 2.5 uM): 10.29%; Toxicity % (U-937 renal cancer cells; 5 uM): 44.93%; Toxicity % (U-937 renal cancer cells; 10 uM): 87.31%
Nc1c(/N=C(/CBr)c2ccc([N+](=O)[O-])cc2)c(=O)[nH]c(=O)n1Cc1ccccc1 [Compound 5b, (E)-6-Amino-1-benzyl-5-((2-bromo-1-(4-nitrophenyl)ethylidene)amino)pyrimidine-2,4(1H,3H)-dione]	2.37 ± 0.06	99.4	99.4	84.7	45.8	23.2	8.07	0.6206	0.5762	15.34	54.21	76.77	91.93	0	0.1292	6.891	27.39	74.68	88.24	100	viability at 0.625 µM ([2]; 0.625 uM): 99.9%; viability at 1.25 µM ([2]; 1.25 uM): 93.1%; viability at 2.5 µM ([2]; 2.5 uM): 72.6%; viability at 5 µM ([2]; 5 uM): 25.3%; viability at 10 µM ([2]; 10 uM): 11.8%; IC50 [2]: 3.66 ± 0.05 µM; viability at 0.312 µM [3]: 99.9%; viability at 0.625 µM [3]: 99.9%; viability at 1.25 µM [3]: 99.6%; viability at 2.5 µM [3]: 99.1%; viability at 5 µM [3]: 50.3%; viability at 10 µM [3]: 16.3%; IC50 (U-937 renal cancer cells): 6.29 ± 0.26 µM; Toxicity % (U-937 renal cancer cells; 0.312 uM): 0.05447%; Toxicity % (U-937 renal cancer cells; 0.625 uM): 0.1089%; Toxicity % (U-937 renal cancer cells; 1.25 uM): 0.3813%; Toxicity % (U-937 renal cancer cells; 2.5 uM): 0.8715%; Toxicity % (U-937 renal cancer cells; 5 uM): 49.73%; Toxicity % (U-937 renal cancer cells; 10 uM): 83.71%
Nc1c(/N=C(/CBr)c2ccc([N+](=O)[O-])cc2)c(=O)[nH]c(=O)n1Cc1ccccc1Cl [Compound 5c, (E)-6-Amino-5-((2-bromo-1-(4-nitrophenyl)ethylidene)amino)-1-(2-chlorobenzyl) pyrimidine-2,4(1H,3H)-dione]	3.28 ± 0.04	99.4	98.4	96.1	62.4	14.9	5.54	0.6206	1.551	3.901	37.63	85.06	94.46	0.1292	0.2153	6.417	59.99	93.84	94.36	99.9	viability at 0.625 µM ([2]; 0.625 uM): 99.8%; viability at 1.25 µM ([2]; 1.25 uM): 93.6%; viability at 2.5 µM ([2]; 2.5 uM): 40%; viability at 5 µM ([2]; 5 uM): 6.16%; viability at 10 µM ([2]; 10 uM): 5.64%; IC50 [2]: 2.24 ± 0.04 µM; viability at 0.312 µM [3]: 99.7%; viability at 0.625 µM [3]: 99.5%; viability at 1.25 µM [3]: 99.7%; viability at 2.5 µM [3]: 99.3%; viability at 5 µM [3]: 48.2%; viability at 10 µM [3]: 14.3%; IC50 (U-937 renal cancer cells): 6.17 ± 0.15 µM; Toxicity % (U-937 renal cancer cells; 0.312 uM): 0.3268%; Toxicity % (U-937 renal cancer cells; 0.625 uM): 0.4902%; Toxicity % (U-937 renal cancer cells; 1.25 uM): 0.2723%; Toxicity % (U-937 renal cancer cells; 2.5 uM): 0.6536%; Toxicity % (U-937 renal cancer cells; 5 uM): 51.8%; Toxicity % (U-937 renal cancer cells; 10 uM): 85.73%
